Counter-ions that a name gives are not always drawn. Like-named read-outs stand apart in the source and are kept apart here.
Experiments:
[1] = Acute toxicity in the mouse; settings: Albino Swiss CD-1, in vivo
Method: The acute toxicity of the tested compound CVie214-salt and CVie216-salt have been determined in the mouse (Albino Swiss CD-1, body weight 30 g). Compounds have been orally administered or intravenously injected at increasing doses to identify the dose causing 50% mortality. Mortality occurred within 30 min after the administration and survival after 24 h.
As comparison, the acute toxicity for the reference compounds Digoxin and Istaroxime were also included. Digoxin refers to literature data (www.lookchem.com, Reference for Digoxin intravenous: Afifi A M, Ammar E M. Pharmacological Research Communications. Vol. 6, Pg. 417, 1974; Reference for Digoxin oral: Archives Internationales de Pharmacodynamie et de Therapie. Vol. 153, Pg. 436, 1965) (Table 3).

STZ diabetic rats = test: Haemodynamics in streptozotocin diabetic rats (echocardiography); type: in vivo, rat; settings: for diastolic function (in words) / overall cardiac function, SV and CO (in words): IV infusion
Method: CVie214 and CVie216 were tested in a diabetic rat model. Briefly, rats were injected with streptozotocin (STZ). After 7-9 weeks from STZ injection, rats were submitted to transthoracic echocardiographic and Doppler evaluation performed under urethane anesthesia. Two-dimensionally guided M-mode recordings were used to obtain short-axis measurements of left ventricular end-diastolic diameter (LVEDD), left ventricular end-systolic diameter (LVESD), posterior (PW) and septal (SW) diastolic wall thickness according to the American Society of Echocardiography guidelines (Lang R M et al., Eur J Echocardiography 2006, 7:79-108). Fractional shortening was calculated as FS=(LVEDD−LVESD)/LVEDD. Relative wall thickness was calculated as PWTd+IVSTd/LVEDD. Mitral inflow was measured by pulsed Doppler at the tips of mitral leaflets from an apical 4-chamber view to obtain early and late filling velocities (E, A) and deceleration time of early filling velocity (DT). The deceleration slope was calculated as E/DT ratio. The mitral deceleration index was calculated as DT/E ratio. Tissue Doppler Imaging (TDI) was evaluated from the apical 4-chamber view to record septal mitral annular movements, i.e., peak myocardial systolic (s′) and early and late diastolic velocity (e′ and a′).
After baseline hemodynamic measurements were taken, the rats were administered Digoxin, CVie214, CVie216 and compared to control. Digoxin, used as reference drug, was intravenously infused at 0.11 mg/kg/min for 15 min and echocardiographic parameters measured after 1 h. CVie214-salt and CVie216-salt were intravenously infused in STZ diabetic rats at 0.2 mg/kg/min and echocardiographic parameters were measured after 15 min and 30 min.
Tables 4-6 show the haemodynamic parameters in STZ diabetic rats for Digoxin, CVie214-salt, and Cvie216-salt.

in vivo = test: in vivo; parameters: dose or concentration left out as unconfirmed; settings: rat
[2] = target: dog renal Na^+/K^+ ATPase (Canis lupus familiaris (Dog) (Canis familiaris), UniProt P50997); settings: read-out: IC50 inhibition of dog renal Na+/K+ ATPase; purified dog kidney enzyme;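 note: enzyme preincubated with inhibitor 10 min at 37 °C, then K^+ and ^32P-ATP added for 15 min, released ^32P counted, activity relative to untreated control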
From the text: Inhibition of Dog Renal Na^+/K^+ ATPase Activity
The compounds were thus tested for their inhibitory effect on the canine renal Na^+/K^+ ATPase enzyme.
Kidneys were excised from 1-3 year-old male beagle dogs (WuXi AppTec, Suzhou Co., Ltd. 1318 Wuzhong Ave., Wuzhong District Suzhou, 215104 P.R. China) under pentobarbital anesthesia (Import Authorization from Italian Health Ministry 0009171-09/04/2015-DGSAF-COD_UO-P, 2015). Kidneys were sliced and the outer medulla was dissected and suspended (1 g/10 ml) in a sucrose-histidine solution containing 250 mM sucrose, 30 mM histidine, and 5 mM EDTA, pH 7.2. The tissue was homogenized by using an Ultra Turrax homogenizer. The sample was centrifuged at 6,000 g for 15 min. Next, the supernatant was decanted and centrifuged at 48,000 g for 30 min. The pellet was suspended in the sucrose-histidine buffer and incubated for 20 min with a sodium-dodecyl-sulphate (SDS) solution dissolved in a gradient buffer containing 25 mM imidazole and 1 mM EDTA, pH 7.5. The sample was layered on the top of a sucrose discontinuous gradient (10, 15, and 29.4%) and centrifuged at 60,000 g for 115 min. The pellet was suspended in the gradient buffer.
Increasing concentrations of the standard ouabain, or tested compound, were incubated with 0.3 μg of purified dog kidney enzyme for 10 min at 37° C. in 120 μl final volume of a medium containing 140 mM NaCl, 3 mM MgCl2, 50 mM Hepes-Tris, 3 mM ATP, pH 7.5. Then, 10 μl of a solution containing 10 mM KCl and 20 nCi of ^32P-ATP (3-10 Ci/mmol, Perkin Elmer) were added. The reaction was allowed to continue for 15 min at 37° C. and then stopped by acidification with 20% v/v ice-cold perchloric acid. ^32P was separated by centrifugation with activated Charcoal (Norit A, Serva) and the radioactivity was counted. The inhibitory activity was expressed as percent of the control samples carried out in the absence of ouabain, or tested compound.

SERCA2a = SERCA2a (Cavia porcellus, UniProt A0A286XD73); settings: literature; cited from earlier work
Chain of SERCA2a (A0A286XD73 1-997): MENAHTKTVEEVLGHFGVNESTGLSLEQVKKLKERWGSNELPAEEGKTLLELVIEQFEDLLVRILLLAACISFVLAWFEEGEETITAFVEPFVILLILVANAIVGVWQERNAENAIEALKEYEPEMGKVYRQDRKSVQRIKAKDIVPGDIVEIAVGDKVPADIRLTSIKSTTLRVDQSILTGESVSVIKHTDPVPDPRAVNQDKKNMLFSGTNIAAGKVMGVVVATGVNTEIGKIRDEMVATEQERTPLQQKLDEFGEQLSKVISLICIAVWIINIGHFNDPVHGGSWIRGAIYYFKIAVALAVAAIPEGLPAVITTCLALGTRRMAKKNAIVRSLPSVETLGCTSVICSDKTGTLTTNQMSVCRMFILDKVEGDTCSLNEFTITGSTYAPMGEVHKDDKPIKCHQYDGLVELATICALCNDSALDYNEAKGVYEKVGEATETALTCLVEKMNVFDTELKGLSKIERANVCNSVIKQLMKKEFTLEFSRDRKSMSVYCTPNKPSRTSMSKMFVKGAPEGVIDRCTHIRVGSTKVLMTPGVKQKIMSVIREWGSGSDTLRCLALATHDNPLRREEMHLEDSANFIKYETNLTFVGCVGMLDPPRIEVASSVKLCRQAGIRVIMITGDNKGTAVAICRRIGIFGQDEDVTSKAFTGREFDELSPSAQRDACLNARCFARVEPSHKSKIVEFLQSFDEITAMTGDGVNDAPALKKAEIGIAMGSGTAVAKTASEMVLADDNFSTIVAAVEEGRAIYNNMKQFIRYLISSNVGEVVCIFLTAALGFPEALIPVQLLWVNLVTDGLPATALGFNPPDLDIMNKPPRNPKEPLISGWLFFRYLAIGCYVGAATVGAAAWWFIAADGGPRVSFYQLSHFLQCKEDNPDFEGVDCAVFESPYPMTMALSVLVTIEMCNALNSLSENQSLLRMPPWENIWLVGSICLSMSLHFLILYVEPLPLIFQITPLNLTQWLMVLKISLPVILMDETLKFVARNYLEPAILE

[3] = test system: rat ventricular myocytes isolated from STZ rats; settings: literature; cited from earlier work
[4] = test system: mouse (Albino Swiss CD-1); settings: data from literature, cited from earlier work
[5] = after 15 min IV infusion 0.2 mg/kg/min
[6] = after 30 min IV infusion 0.2 mg/kg/min
[7] = after 15 min Digoxin IV infusion 0.11 mg/kg/min

C[C@]12CC[C@H](CCCC(=O)O)CC1[C@@H](O)CC1C2CC[C@]2(C)C(=O)CCC12 (stereo partly drawn) [CVie214-salt, 4-(6alpha-hydroxy-17-oxoandrostane-3-yl) butyric acid]
LD50 at 24 h ([1]; iv): 300 mg/kg | LD50 at 24 h ([1]; oral, os): > 800 mg/kg | diastolic function (in words) (STZ diabetic rats): ameliorated diastolic function | overall cardiac function, SV and CO (in words) (STZ diabetic rats): improvement | A late filling velocity of mitral inflow (STZ diabetic rats; [5]): 0.65 ± 0.13 m/s | CO cardiac output (STZ diabetic rats; [5]): 177.23 ± 40.64 mL/min | DT deceleration time of E wave (STZ diabetic rats; [5]): 42.5 ± 10.19 ms | DT/E mitral deceleration index (STZ diabetic rats; [5]): 49.52 ± 12.41 s2/m | E early filling velocity of mitral inflow (STZ diabetic rats; [5]): 0.88 ± 0.15 m/s | E/A index of LV function (STZ diabetic rats; [5]): 1.36 ± 0.17 | E/DT deceleration slope (STZ diabetic rats; [5]): 21.49 ± 5.8 m/s2 | E/e′ index of LV filling pressure (STZ diabetic rats; [5]): 37.49 ± 4.34 | FS fractional shortening (STZ diabetic rats; [5]): 58.1 ± 8.59% | HR heart rate (STZ diabetic rats; [5]): 268 ± 54 beat/min | SV stroke volume (STZ diabetic rats; [5]): 0.68 ± 0.19 ml/beat | a′ TDI late relaxation velocity (STZ diabetic rats; [5]): 29.13 ± 6.56 cm/s | e′ TDI early relaxation velocity (STZ diabetic rats; [5]): 23.33 ± 2.62 cm/s | s′ TDI contraction velocity (STZ diabetic rats; [5]): 22.45 ± 3.12 cm/s | A late filling velocity of mitral inflow (STZ diabetic rats; [6]): 0.69 ± 0.11 m/s | CO cardiac output (STZ diabetic rats; [6]): 175.15 ± 33.96 mL/min | DT deceleration time of E wave (STZ diabetic rats; [6]): 42.15 ± 9.88 ms | DT/E mitral deceleration index (STZ diabetic rats; [6]): 48.51 ± 16.44 s2/m | E early filling velocity of mitral inflow (STZ diabetic rats; [6]): 0.91 ± 0.16 m/s | E/A index of LV function (STZ diabetic rats; [6]): 1.34 ± 0.21 | E/DT deceleration slope (STZ diabetic rats; [6]): 23.18 ± 8.37 m/s2 | E/e′ index of LV filling pressure (STZ diabetic rats; [6]): 37.47 ± 4.48 | FS fractional shortening (STZ diabetic rats; [6]): 60.69 ± 8.36% | HR heart rate (STZ diabetic rats; [6]): 252 ± 49 beat/min | SV stroke volume (STZ diabetic rats; [6]): 0.71 ± 0.16 ml/beat | a′ TDI late relaxation velocity (STZ diabetic rats; [6]): 28.94 ± 5.32 cm/s | e′ TDI early relaxation velocity (STZ diabetic rats; [6]): 24.24 ± 2.34 cm/s | s′ TDI contraction velocity (STZ diabetic rats; [6]): 21.82 ± 2.81 cm/s | bioavailability (in vivo): 41.5%

C[C@H]1O[C@@H](O[C@H]2[C@@H](O)C[C@H](O[C@H]3[C@@H](O)C[C@H](O[C@H]4CC[C@@]5(C)[C@H](CC[C@@H]6[C@@H]5C[C@@H](O)[C@]5(C)[C@@H](C7=CC(=O)OC7)CC[C@]65O)C4)O[C@@H]3C)O[C@@H]2C)C[C@H](O)[C@@H]1O [Digoxin, reference compound]
diastolic function (in words) (STZ diabetic rats): ameliorated diastolic function | overall cardiac function, SV and CO (in words) (STZ diabetic rats): did not affect | A late filling velocity of mitral inflow (STZ diabetic rats; [7]): 0.79 ± 0.19 m/s | CO cardiac output (STZ diabetic rats; [7]): 155.6 ± 45.7 mL/min | DT deceleration time of E wave (STZ diabetic rats; [7]): 44.1 ± 10.29 ms | DT/E mitral deceleration index (STZ diabetic rats; [7]): 50.18 ± 17.05 s2/m | E early filling velocity of mitral inflow (STZ diabetic rats; [7]): 0.92 ± 0.19 m/s | E/A index of LV function (STZ diabetic rats; [7]): 1.20 ± 0.21 | E/DT deceleration slope (STZ diabetic rats; [7]): 22.66 ± 9.56 m/s2 | E/e′ index of LV filling pressure (STZ diabetic rats; [7]): 38.95 ± 7.31 | FS fractional shortening (STZ diabetic rats; [7]): 53.1 ± 5.6*6% | HR heart rate (STZ diabetic rats; [7]): 257 ± 36 beat/min | SV stroke volume (STZ diabetic rats; [7]): 0.6 ± 0.12 ml/beat | a′ TDI late relaxation velocity (STZ diabetic rats; [7]): 29.78 ± 6.17 cm/s | e′ TDI early relaxation velocity (STZ diabetic rats; [7]): 23.82 ± 2.87 cm/s | s′ TDI contraction velocity (STZ diabetic rats; [7]): 26.03 ± 4.66 cm/s | IC50 [2]: 180 nM | stimulation of SERCA2a activity (in words) (SERCA2a): failed to stimulate | effect detected by the SR loading protocol [3]: did not detect any effect | LD50 ([4]; iv): 7.7 mg/kg | LD50 ([4]; os): 17.8 mg/kg
